Test results published in US20200291018A1, “TAM KINASE INHIBITORS” (SYROS PHARMACEUTICALS, INC., priority 2017, published 2020).

Legend:
MERTK = biological target: T1, MERTK (Homo sapiens, UniProt Q12866); assay: TR-FRET kinase activity assay, MERTK; assay type: biochemical; settings: for IC50: TR-FRET activity assay, ATP at Km, 60 minutes, read-out: Mer IC50; for Mer/Flt3 ratio (FLT3 IC50/Mer IC50): ratio calculated as FLT3 IC50/Mer IC50
T1 sequence (Q12866 21-999): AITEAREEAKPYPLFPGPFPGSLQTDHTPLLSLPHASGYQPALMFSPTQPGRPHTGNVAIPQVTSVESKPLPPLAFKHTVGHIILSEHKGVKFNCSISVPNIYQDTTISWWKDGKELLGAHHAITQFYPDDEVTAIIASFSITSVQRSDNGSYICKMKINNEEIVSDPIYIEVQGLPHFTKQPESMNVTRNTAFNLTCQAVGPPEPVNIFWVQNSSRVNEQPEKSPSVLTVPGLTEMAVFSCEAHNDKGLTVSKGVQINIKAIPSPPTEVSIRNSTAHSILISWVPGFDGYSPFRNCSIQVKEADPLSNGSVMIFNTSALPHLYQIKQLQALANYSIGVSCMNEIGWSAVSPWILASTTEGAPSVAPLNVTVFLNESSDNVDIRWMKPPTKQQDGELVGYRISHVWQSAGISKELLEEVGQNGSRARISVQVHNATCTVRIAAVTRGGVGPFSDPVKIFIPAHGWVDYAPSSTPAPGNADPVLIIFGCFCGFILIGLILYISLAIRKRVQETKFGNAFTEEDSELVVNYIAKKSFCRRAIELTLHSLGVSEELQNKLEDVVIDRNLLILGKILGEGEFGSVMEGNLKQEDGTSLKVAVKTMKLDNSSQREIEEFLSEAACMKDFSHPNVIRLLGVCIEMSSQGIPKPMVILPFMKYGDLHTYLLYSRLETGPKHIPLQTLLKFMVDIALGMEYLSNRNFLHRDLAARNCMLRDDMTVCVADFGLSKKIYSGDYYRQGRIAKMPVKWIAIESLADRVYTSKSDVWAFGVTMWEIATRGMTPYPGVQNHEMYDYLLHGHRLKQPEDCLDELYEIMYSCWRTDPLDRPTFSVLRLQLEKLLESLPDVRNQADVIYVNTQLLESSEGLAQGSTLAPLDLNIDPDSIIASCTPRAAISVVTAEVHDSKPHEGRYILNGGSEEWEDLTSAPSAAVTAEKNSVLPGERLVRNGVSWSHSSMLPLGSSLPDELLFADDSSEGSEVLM
In short: (§1)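 Enzyme, fluorescent-labeled peptide substrate and compound were mixed, then ATP was added at each enzyme's Km. Buffer was 50 mM HEPES pH 7.5, 10 mM MgCl2, 1 mM EGTA, 0.01% Brij 35, 1 mM DTT at RT. After 60 min, EDTA quench and 30 min with Eu-anti-phosphotyrosine-site antibody; TR-FRET read gave IC50.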

TYRO3 = biological target: T2, TYRO3 (Homo sapiens, UniProt Q06418); assay: TR-FRET kinase activity assay, TYRO3; assay type: biochemical; settings: ATP at Km, 60 minutes
T2 sequence (Q06418 41-890): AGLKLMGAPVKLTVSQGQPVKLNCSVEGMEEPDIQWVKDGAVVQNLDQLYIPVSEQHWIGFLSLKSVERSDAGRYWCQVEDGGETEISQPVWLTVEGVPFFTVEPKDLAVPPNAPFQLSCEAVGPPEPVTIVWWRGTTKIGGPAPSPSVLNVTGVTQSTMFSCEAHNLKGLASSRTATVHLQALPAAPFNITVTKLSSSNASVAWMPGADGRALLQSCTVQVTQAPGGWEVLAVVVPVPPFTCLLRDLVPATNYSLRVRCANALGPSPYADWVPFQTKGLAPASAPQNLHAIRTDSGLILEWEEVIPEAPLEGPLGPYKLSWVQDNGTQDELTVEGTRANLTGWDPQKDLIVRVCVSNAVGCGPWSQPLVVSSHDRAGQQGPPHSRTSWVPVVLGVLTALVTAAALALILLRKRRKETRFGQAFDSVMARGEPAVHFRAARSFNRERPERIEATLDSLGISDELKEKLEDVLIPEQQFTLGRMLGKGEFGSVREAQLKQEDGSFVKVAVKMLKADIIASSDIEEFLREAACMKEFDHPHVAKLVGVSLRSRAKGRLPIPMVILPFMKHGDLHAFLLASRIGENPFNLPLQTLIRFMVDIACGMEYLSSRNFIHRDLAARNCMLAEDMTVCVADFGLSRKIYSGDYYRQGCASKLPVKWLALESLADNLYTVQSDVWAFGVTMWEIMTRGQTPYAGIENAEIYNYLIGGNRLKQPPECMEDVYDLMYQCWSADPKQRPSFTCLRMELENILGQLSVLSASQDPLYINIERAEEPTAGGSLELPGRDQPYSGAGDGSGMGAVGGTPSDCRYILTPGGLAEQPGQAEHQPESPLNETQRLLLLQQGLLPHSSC
In short: as §1

| SMILES | IC50 (MERTK) [nM] | Mer/Flt3 ratio (FLT3 IC50/Mer IC50) (MERTK) | IC50 (TYRO3) [nM] |
| --- | --- | --- | --- |
| COC[C@H](C)Nc1ncc2c(OC3CCOCC3)ncc(-c3ccc(CO)cc3)c2n1 [Compound 335] | ≤ 100 | +++ (a ratio of >100) | 100 to 1000 |
| COC[C@@H](C)Nc1ncc2c(OC3CC(O)C3)ncc([C@H]3CC[C@H](O)CC3)c2n1 (stereo partly drawn) [Compound 351] | ≤ 100 | +++ (a ratio of >100) | ≤ 100 |
| COC[C@H](C)Nc1ncc2c(OC3CCOCC3)ncc(C3CCCCN3C)c2n1 (stereo partly drawn) [Compound 350] | 100 to 1000 | ++ (a ratio of between 10 and 100) | 1000 to 10000 |
| COC[C@H](C)Nc1ncc2c(OC3CCOCC3)ncc([C@H]3CC[C@@](O)(C(F)(F)F)CC3)c2n1 [Compound 329] | ≤ 100 | +++ (a ratio of >100) | 100 to 1000 |
| CC(C)CC(C)Nc1ncc2c(=O)n(C3CCNCC3)cc([C@H]3CC[C@H](O)CC3)c2n1 (stereo partly drawn) [Compound 119] | ≤ 100 | +++ (a ratio of >100) | ≤ 100 |
| COC[C@H](C)Nc1ncc2c(C)ncc([C@H]3CC[C@H](O)CC3)c2n1 [Compound 303] | ≤ 100 | +++ (a ratio of >100) | ≤ 100 |
| COC[C@H](C)Nc1ncc2c(OC3CCOCC3)ncc([C@H]3CC[C@H](NS(C)(=O)=O)CC3)c2n1 [Compound 316] | ≤ 100 | +++ (a ratio of >100) | ≤ 100 |
| CC[C@H](C)Nc1ncc2c(O[C@H]3CC[C@](C)(O)CC3)ncc([C@H]3CC[C@H](O)CC3)c2n1 [Compound 287] | ≤ 100 | ++ (a ratio of between 10 and 100) | 100 to 1000 |
| COCCN1C(C)(C)CC(Oc2ncc([C@H]3CC[C@H](O)CC3)c3nc(N[C@@H](C)COC)ncc23)CC1(C)C [Compound 310] | ≤ 100 | +++ (a ratio of >100) | ≤ 100 |
| C[C@H](CC(F)(F)F)Nc1ncc2c(OC3CCOCC3)ncc([C@H]3CC[C@H](O)CC3)c2n1 [Compound 338] | ≤ 100 | +++ (a ratio of >100) | 100 to 1000 |
| COC[C@H](C)Nc1ncc2c(OC3CCOCC3)ncc(-c3cccc(C#N)c3)c2n1 [Compound 320] | 100 to 1000 | ++ (a ratio of between 10 and 100) | 100 to 1000 |
| CC(C)Nc1ncc2c(OC3CCOCC3)ncc(-c3cccc(S(C)(=O)=O)c3)c2n1 [Compound 313] | ≤ 100 | +++ (a ratio of >100) | 100 to 1000 |
| CNC(=O)N[C@H]1CC[C@H](c2cnc(OC3CCOCC3)c3cnc(N[C@@H](C)COC)nc32)CC1 [Compound 340] | ≤ 100 | +++ (a ratio of >100) | 100 to 1000 |
| COC[C@H](C)Nc1ncc2c(OC3CCOCC3)ncc(-c3ccc(N)nc3)c2n1 [Compound 337] | ≤ 100 | +++ (a ratio of >100) | 100 to 1000 |
| COC[C@H](C)Nc1ncc2c(OC3CCOCC3)ncc([C@H]3CC[C@](O)(C(F)(F)F)CC3)c2n1 [Compound 330] | 100 to 1000 | ++ (a ratio of between 10 and 100) | 100 to 1000 |
| CNS(=O)(=O)N1CCC(c2cnc(OC3CCOCC3)c3cnc(N[C@@H](C)COC)nc23)CC1 [Compound 341] | ≤ 100 | +++ (a ratio of >100) | 100 to 1000 |
| COC[C@H](C)Nc1ncc2c(OC3CCOCC3)ncc(C3CCCCN3)c2n1 (stereo partly drawn) [Compound 346] | 100 to 1000 | + (a ratio of >2.0 and <10) | 1000 to 10000 |
| CCOC[C@H](C)Nc1ncc2c(OC3CCOCC3)ncc([C@H]3CC[C@H](O)CC3)c2n1 [Compound 281] | ≤ 100 | +++ (a ratio of >100) | 100 to 1000 |
| COC[C@H](C)Nc1ncc2c(OC3CCOCC3)ncc([C@H]3CCCN(C)C3)c2n1 [Compound 332] | 100 to 1000 | + (a ratio of >2.0 and <10) | 100 to 1000 |
| COC[C@H](C)Nc1ncc2c(OC3CCOCC3)ncc(-c3cnn([C@H]4CCN(C)C4)c3)c2n1 [Compound 334] | ≤ 100 | ++ (a ratio of between 10 and 100) | 100 to 1000 |
| O[C@H]1CC[C@H](c2cnc(OC3CCOCC3)c3cnc(NCCC(F)(F)F)nc32)CC1 [Compound 286] | ≤ 100 | + (a ratio of >2.0 and <10) | 100 to 1000 |
| C[C@@H](CCO)Nc1ncc2c(OC3CCOCC3)ncc([C@H]3CC[C@H](O)CC3)c2n1 [Compound 284] | ≤ 100 | +++ (a ratio of >100) | 100 to 1000 |
